According to ChEMBL document CHEMBL3396948 (Bioorg Med Chem, 2015):
Active and inactive are the calls of the source. No cut-off for these calls is given here.

Columns and labels:
Trypanothione reductase = Trypanothione reductase (Trypanosoma cruzi, UniProt P28593); test: Inhibition of Trypanosoma cruzi trypanothione reductase assessed as reduction of trypanothione disulfide by spectrophotometrically
Saccharomyces cerevisiae = test: Inhibition of yeast glutathione reductase assessed as reduction of glutathione disulfide up to 250 uM by spectrophotometrically
[1] = system: Trypanosoma brucei brucei; test: Trypanocidal activity against drug-sensitive Trypanosoma brucei brucei Lab 110 EATRO assessed as inhibition of trypanosomes after 48 hrs; format: functional, organism-based
[2] = system: Trypanosoma brucei rhodesiense; test: Trypanocidal activity against clinical isolate Trypanosoma brucei rhodesiense KETRI 269 assessed as inhibition of trypanosomes after 48 hrs; format: functional, organism-based; conditions: KETRI 269, 48 h
Mus musculus [3] = test: Toxicity in drug-sensitive Trypanosoma brucei brucei Lab 110 EATRO infected in female Swiss-Webster mouse assessed as death at 50 mg/kg, ip once daily for 3 days relative to control; format: organism-based; set-up: dose 50 mg/kg, route intraperitoneal; conditions: in vivo, 72 h
[4] = system: Trypanosoma brucei rhodesiense; test: Trypanocidal activity against pentamidine and melarsoprol-resistant Trypanosoma brucei rhodesiense K 243-As-10-3 assessed as inhibition of trypanosomes after 48 hrs; format: functional, organism-based; conditions: K 243-As-10-3, 48 h
[5] = system: Trypanosoma brucei rhodesiense; test: Trypanocidal activity against clinical isolate Trypanosoma brucei rhodesiense KETRI 243 assessed as inhibition of trypanosomes after 48 hrs; format: functional, organism-based; conditions: KETRI 243, 48 h
[6] = system: Trypanosoma brucei brucei; test: In vivo trypanocidal activity against drug-sensitive Trypanosoma brucei brucei Lab 110 EATRO infected in female Swiss-Webster mouse assessed as life prolongation at 50 mg/kg, ip administered in 2 daily doses for 3 days relative to control; format: functional, organism-based; set-up: dose 50 mg/kg
[7] = system: Trypanosoma brucei brucei; test: In vivo trypanocidal activity against drug-sensitive Trypanosoma brucei brucei Lab 110 EATRO infected in female Swiss-Webster mouse assessed as life prolongation at 1 to 25 mg/kg, ip once daily for 3 days relative to control; format: functional, organism-based
Mus musculus [8] = test: Toxicity in drug-sensitive Trypanosoma brucei brucei Lab 110 EATRO infected in female Swiss-Webster mouse assessed as death at 1 to 25 mg/kg, ip once daily for 3 days relative to control; format: organism-based; set-up: dose 1-25 mg/kg, route intraperitoneal; conditions: in vivo, 72 h
Trypanosoma brucei = test: Trypanocidal activity against bloodstream form of Trypanosoma brucei assessed as inhibition of trypanosomes after 48 hrs; format: functional, organism-based

Chain of Trypanothione reductase (P28593 whole entry): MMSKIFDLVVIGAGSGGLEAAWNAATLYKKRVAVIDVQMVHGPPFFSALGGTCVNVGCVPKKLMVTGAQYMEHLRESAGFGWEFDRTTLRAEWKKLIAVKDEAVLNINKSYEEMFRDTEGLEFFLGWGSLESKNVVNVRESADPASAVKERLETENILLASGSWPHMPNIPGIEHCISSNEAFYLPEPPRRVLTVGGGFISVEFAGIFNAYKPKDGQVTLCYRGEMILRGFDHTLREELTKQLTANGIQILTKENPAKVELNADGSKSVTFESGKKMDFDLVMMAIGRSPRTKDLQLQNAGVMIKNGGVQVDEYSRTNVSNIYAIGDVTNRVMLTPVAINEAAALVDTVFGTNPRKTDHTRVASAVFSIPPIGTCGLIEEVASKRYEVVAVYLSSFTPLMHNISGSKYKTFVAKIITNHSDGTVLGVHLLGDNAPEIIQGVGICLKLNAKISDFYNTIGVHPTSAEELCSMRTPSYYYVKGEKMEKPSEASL

| SMILES | Ki (Trypanothione reductase) [µM] | inhibition (Saccharomyces cerevisiae) | IC50 [1] [µM] | IC50 [2] [µM] | Activity (Mus musculus [3]) | IC50 [4] [µM] | IC50 [5] [µM] | Activity [6] | Activity [7] | Activity (Mus musculus [8]) | EC50 (Trypanosoma brucei) [µM] |
| --- | --- | --- | --- | --- | --- | --- | --- | --- | --- | --- | --- |
| NCCN(CCN)C1c2ccccc2CCc2ccccc21 | 27.9 | inactive | 2.8 |  |  |  |  |  |  |  |  |
| NCCCN(CCCCN(CCCN)C1c2ccccc2CCc2ccccc21)C1c2ccccc2CCc2ccccc21 | 0.255 | inactive | 2.55 | 1.69 | Toxic | 22 | 1.5 | Active |  |  |  |
| NCCCCN(CCCN)C1c2ccccc2CCc2ccccc21 | 4 | inactive | 0.62 | 4.3 |  | 8.3 | 4.5 |  | inactive | Toxic |  |
| CN(C)CCNC1c2ccccc2CCc2ccccc21 | 136 | inactive | 1.68 |  |  |  | 2 |  |  |  |  |
| CN(C)CCCNC1c2ccccc2CCc2ccccc21 | 81.6 | inactive | 1.38 |  |  |  |  |  |  |  |  |
| NCCCN(CCCN)C1c2ccccc2CCc2ccccc21 | 7.62 | inactive |  |  |  |  |  |  |  |  |  |
| CN(C)CCCN1c2ccccc2CCc2ccc(Cl)cc21 [CLOMIPRAMINE] |  | inactive |  |  |  |  |  |  |  |  | 5.05 |
